Laboratory results from PubChem BioAssay (NCI).
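Protocol summary: plate cells (96-well), add compound at 5 concentrations, incubate 48 h, interpolate endpoints linearly. At the GI50, growth is halved. TGI is the concentration that stops growth completely.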

Experiments:
Assay in all cases: NCI-60 cell line screen, 48 h
[1] = system: HCC-2998 colon
[2] = system: CAKI-1 renal
[3] = system: SN12C renal
[4] = system: UACC-257 melanoma
[5] = system: SR leukemia
[6] = system: K-562 leukemia
[7] = system: SNB-75 CNS
[8] = system: RXF 393 renal
[9] = system: SK-MEL-2 melanoma
[10] = system: PC-3 prostate

Row | SMILES | TGI [1] [µM] | TGI [2] [µM] | TGI [3] [µM] | TGI [4] [µM] | TGI [5] [µM] | TGI [6] [µM] | TGI [7] [µM] | TGI [8] [µM] | TGI [9] [µM] | GI50 [1] [µM] | GI50 [7] [µM] | GI50 [2] [nM] | GI50 [3] [nM] | GI50 [8] [µM] | GI50 [4] [nM] | GI50 [9] [µM] | GI50 [6] [nM] | GI50 [10] [µM] | TGI [10] [µM] | GI50 [5] [nM]
1 | Oc1c(C(Nc2cccc3cccnc23)c2ccccc2)ccc2cccnc12 (stereo not drawn) | > 100 | > 100 | > 100 | 35.9 | 10.4 | > 100 |  |  |  |  |  |  |  |  |  |  |  |  |  | 
2 | O=[N+]([O-])c1cc(C(F)(F)F)cc([N+](=O)[O-])c1CCl |  | 7.37 | 3.08 | 10.2 | 2.72 | 1.11 | 8.77 | 5.09 | > 26.7 |  |  |  |  |  |  |  |  |  |  | 
3 | C[C@H]1[C@H](C)CC[C@]2(CO)CC[C@]3(C)C(=CC[C@@H]4[C@@]5(C)CCCNC(C)(C)[C@@H]5CC[C@]43C)[C@H]12 | 3.46 | 3.23 | 3.11 | 3.7 |  | 2.02 | 2.9 | 3.51 | 3.63 | 1.75 | 1.49 | 1620 | 1640 | 1.81 | 1950 | 1.9 | 471 | 1.55 | 2.96 | 
4 | Cc1ccc(S(=O)(=O)N/N=C/c2c(O)ccc3ccccc23)cc1 | 46.1 | 35.3 | > 100 | > 100 |  | > 100 | 74.3 | 42.4 | 49.1 |  |  |  |  |  |  |  |  |  | 58.6 | 
5 | CCC[CH2][Sn]1([CH2]CCC)[O]C(=O)c2cccnc2[O]1 | 14.6 | 3.93 | 8.79 | 5.04 | 6.19 | 6.01 | 6.78 | 3.82 | 3.81 | 3.76 | 2.09 | 740 | 2580 | 2.02 | 1550 | 1.71 | 1850 |  |  | 1650
6 | COc1ccc(-c2nc(-c3nc4ccc(OC)cc4[nH]3)c3ccccn23)cc1 | 46.4 | 49.4 | > 100 | 26.1 |  | > 100 | > 100 | > 100 | 16.5 | 3.96 | 24 | 3810 | 3910 | 24.2 | 4390 | 4.07 | 3600 | 3.01 | 32.2 | 
7 | Oc1ccccc1/C=C/c1csnn1 | > 100 | > 100 | > 100 | > 100 | > 68 | > 100 | > 100 | > 100 | > 100 |  |  |  |  |  |  |  |  |  |  | 
8 | COc1cc(C(=O)O[C@H](C(=O)NCCCCCNC(=O)[C@@H](OC(=O)c2cc(OC)cc3c(C)cccc23)[C@]2(C)CO2)[C@]2(C)CO2)c2cccc(C)c2c1 | 3.55 | 1.89 | 1.15 | 5.33 |  | > 36.3 | 3.43 | 0.025 |  | 0.254 | 0.911 | 355 | 364 | < 0.01 | 2030 | 0.2 | 437 | 0.997 | > 41.1 | 
9 | OC(c1ccccc1)(c1ccccc1)c1ccncc1 | > 100 | > 100 | > 100 | > 100 | > 100 | > 100 | > 100 | > 100 | > 100 |  |  |  |  |  |  |  |  |  |  | 
10 | CCOC(=O)N1CCN(C=S)CC1 | > 100 |  | > 100 | > 100 | > 100 | > 100 | > 100 | > 100 | > 100 |  |  |  |  |  |  |  |  |  |  | 
11 | CP1(=O)CCCCC1 | > 100 | > 100 | > 100 | > 100 | > 100 | > 100 | > 100 | > 100 | > 100 |  |  |  |  |  |  |  |  |  |  | 
12 | COc1cc([N+](=O)[O-])c(OC)cc1-c1nc2sc(Cl)cn2c1/C(N)=N/C(=N)N | 4.15 | > 100 | 4.29 | 22.6 |  | > 100 |  | 16.9 |  | 1.99 |  | 39000 | 1910 | 4.3 | 8000 |  | 2010 | 3.22 | 13 | 
13 | COc1cc(NC(C)CCCNC2CN3CCC2CC3)c2ncccc2c1 (stereo not drawn) | 24.8 | 38.9 | 29.4 | 5.74 |  |  | 20.6 | 15.4 | 52.4 | 11.1 | 7.07 | 13400 | 14100 | 3.44 | 2390 | 23.3 |  | 12.5 | 35.1 | 
14 | C(#Cc1ccccc1C#Cc1cccs1)c1cccs1 | 65.2 | > 100 |  | > 100 |  | > 100 | > 100 | > 100 | > 100 | 24 | > 100 | 43200 |  | 23.9 | > 100000 | 41.7 | 30200 | 25.4 | > 100 | 
15 | CC(C)C1CC[C@@H](C)C[C@@]1(O)CC(N)=O (stereo partly drawn) | > 100 | > 100 | > 100 | > 100 | > 100 | > 100 | > 100 |  | > 100 |  |  |  |  |  |  |  |  |  |  | 
16 | CN(C)CC/C(=N\Nc1ccc([N+](=O)[O-])cc1)c1ccccc1 |  |  | 23.8 | 30.5 | 17.2 | 15.9 | 17.6 | 17.1 | 28.2 |  |  |  |  |  |  |  |  |  |  | 
17 | C=C1C(=O)O[C@H]2[C@H]1CC/C(COC(=O)NCc1ccc(Cn3c(=O)sn(CCCl)c3=O)cc1)=C\CC[C@@]1(C)O[C@@H]21 | 33 | 3.71 | 4.28 | 4.98 |  | 5.63 | 21 | 2.64 | 24.7 | 17.3 | 7.65 | 1760 | 2010 | 1.18 | 1850 | 10.6 | 2070 | 8.09 | 21 | 
